Holding throughout (test): TGFα-shedding assay-based GPCR screening with chimeric Gα subunit proteins
Holding throughout (type): cell-based

For assay [1], the target named is T1, 348 GPCRs (Homo sapiens, UniProt P16473).
T1 construct: expressed in transfected cells; host or cells: HEK293A
Conditions: 10µM, Favipiravir 100μM.

Assay [2] addresses T2, 348 GPCRs (Homo sapiens, UniProt P25116).
T2 construct: expressed in transfected cells; host or cells: HEK293A
T2 sequence (P25116 22-425): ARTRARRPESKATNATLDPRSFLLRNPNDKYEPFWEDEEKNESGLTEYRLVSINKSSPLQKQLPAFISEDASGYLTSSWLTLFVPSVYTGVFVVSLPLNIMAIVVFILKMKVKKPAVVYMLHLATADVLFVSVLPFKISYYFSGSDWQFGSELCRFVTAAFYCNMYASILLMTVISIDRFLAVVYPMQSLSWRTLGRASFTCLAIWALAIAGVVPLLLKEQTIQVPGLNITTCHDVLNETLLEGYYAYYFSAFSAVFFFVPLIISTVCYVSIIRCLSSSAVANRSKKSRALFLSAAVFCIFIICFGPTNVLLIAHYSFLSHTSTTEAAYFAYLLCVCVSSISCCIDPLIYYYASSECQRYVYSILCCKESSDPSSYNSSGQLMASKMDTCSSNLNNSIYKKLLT
Conditions: 10µM, Favipiravir 100μM.

The target in assay [3] is 348 GPCRs (Homo sapiens, UniProt P28221). Particulars: 10µM, Favipiravir 100μM.
The target of assay [4] is T3, 348 GPCRs (Homo sapiens, UniProt P35410).
T3 construct: expressed in transfected cells; host or cells: HEK293A
T3 sequence (P35410 1-378): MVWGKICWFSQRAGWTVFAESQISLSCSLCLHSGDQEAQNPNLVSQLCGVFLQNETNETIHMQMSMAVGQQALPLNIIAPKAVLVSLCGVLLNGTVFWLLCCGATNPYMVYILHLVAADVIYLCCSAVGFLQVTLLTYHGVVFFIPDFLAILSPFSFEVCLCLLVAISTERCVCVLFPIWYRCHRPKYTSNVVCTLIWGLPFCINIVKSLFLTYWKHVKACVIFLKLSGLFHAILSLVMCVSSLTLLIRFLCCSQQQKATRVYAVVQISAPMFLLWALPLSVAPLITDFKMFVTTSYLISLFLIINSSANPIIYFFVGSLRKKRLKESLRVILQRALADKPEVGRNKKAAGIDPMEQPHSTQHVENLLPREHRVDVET

Assay [5] addresses T4, 348 GPCRs (Homo sapiens, UniProt P47211).
T4 sequence (P47211 1-349): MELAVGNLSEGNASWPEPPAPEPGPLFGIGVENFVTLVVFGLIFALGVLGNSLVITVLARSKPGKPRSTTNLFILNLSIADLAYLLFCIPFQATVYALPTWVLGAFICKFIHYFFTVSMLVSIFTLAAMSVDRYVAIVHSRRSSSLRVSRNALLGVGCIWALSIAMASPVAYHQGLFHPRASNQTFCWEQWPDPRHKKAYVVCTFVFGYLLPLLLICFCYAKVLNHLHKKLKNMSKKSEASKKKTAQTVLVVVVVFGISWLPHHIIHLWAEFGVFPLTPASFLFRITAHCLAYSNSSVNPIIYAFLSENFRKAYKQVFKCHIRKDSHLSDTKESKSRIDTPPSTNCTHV
Conditions: 10µM, Favipiravir 100μM.

For assay [6], the target named is T5, 348 GPCRs (Homo sapiens, UniProt P49286).
T5 construct: expressed in transfected cells; host or cells: HEK293A
T5 sequence (P49286 1-362): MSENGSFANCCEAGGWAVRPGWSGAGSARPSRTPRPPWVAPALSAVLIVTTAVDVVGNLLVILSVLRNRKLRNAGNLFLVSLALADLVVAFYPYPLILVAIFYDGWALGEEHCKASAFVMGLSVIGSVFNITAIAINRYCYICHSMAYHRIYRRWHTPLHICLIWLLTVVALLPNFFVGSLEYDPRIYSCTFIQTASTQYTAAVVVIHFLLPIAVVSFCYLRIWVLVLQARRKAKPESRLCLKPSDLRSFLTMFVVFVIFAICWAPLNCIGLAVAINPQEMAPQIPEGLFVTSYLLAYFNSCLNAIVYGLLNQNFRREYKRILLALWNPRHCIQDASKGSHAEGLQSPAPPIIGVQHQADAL
Conditions: 10µM, Favipiravir 100μM.

For assay [7], the target named is T6, 348 GPCRs (Homo sapiens, UniProt Q6NV75).
T6 construct: expressed in transfected cells; host or cells: HEK293A
Conditions: 10µM, Favipiravir 100μM.

Assay [8] deals with T7, 348 GPCRs (Homo sapiens, UniProt Q8NFJ5).
T7 construct: expressed in transfected cells; host or cells: HEK293A
Particulars: 10µM, Favipiravir 100μM.

Assay [9] concerns the target T8, 348 GPCRs (Homo sapiens, UniProt Q99788).
T8 construct: expressed in transfected cells; host or cells: HEK293A
T8 sequence (Q99788 1-373): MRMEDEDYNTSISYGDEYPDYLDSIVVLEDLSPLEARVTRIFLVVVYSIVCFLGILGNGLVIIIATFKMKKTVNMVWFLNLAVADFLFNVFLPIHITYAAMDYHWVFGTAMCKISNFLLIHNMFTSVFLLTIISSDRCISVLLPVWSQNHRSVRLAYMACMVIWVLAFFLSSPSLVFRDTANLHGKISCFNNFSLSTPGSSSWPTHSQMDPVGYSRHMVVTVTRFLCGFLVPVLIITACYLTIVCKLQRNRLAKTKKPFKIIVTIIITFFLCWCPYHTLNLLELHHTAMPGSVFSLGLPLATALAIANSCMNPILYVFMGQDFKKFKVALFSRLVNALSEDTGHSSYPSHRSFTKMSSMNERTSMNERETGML
Conditions: GPCR CMKLR1 (chemerin chemokine-like receptor 1).

[10] abbreviates: TSHR (thyroid stimulating hormone receptor), read-out: % GPCR activation compared to TPA.
The mark [11] stands for this setting: F2R (coagulation factor II (thrombin) receptor), read-out: % GPCR activation compared to TPA.
Where [12] appears, read: 5-HT1D (5-hydroxytryptamine receptor 1D), read-out: % GPCR activation compared to TPA.
[13] abbreviates: GPCR MAS1L (MAS1 oncogene-like), read-out: % GPCR activation compared to TPA.
Setting [14] is: GALR1 (galanin receptor 1), read-out: % GPCR activation compared to TPA.
[15] abbreviates: MT2R (melatonin receptor type 1B), read-out: % GPCR activation compared to TPA.
The mark [16] stands for this setting: GPR153 (G protein-coupled receptor 153), read-out: % GPCR activation compared to TPA.
The mark [17] stands for this setting: GPRC5A (G protein-coupled receptor class C group 5 member A), read-out: % GPCR activation compared to TPA.
Where [18] appears, read: read-out: % GPCR activation compared to TPA, TSHR (thyroid stimulating hormone receptor).
The mark [19] stands for this setting: read-out: % GPCR activation compared to TPA, F2R (coagulation factor II (thrombin) receptor).
Where [20] appears, read: read-out: % GPCR activation compared to TPA, 5-HT1D (5-hydroxytryptamine receptor 1D).
[21] abbreviates: read-out: % GPCR activation compared to TPA, GPCR MAS1L (MAS1 oncogene-like).
Setting [22] is: read-out: % GPCR activation compared to TPA, GALR1 (galanin receptor 1).
Where [23] appears, read: read-out: % GPCR activation compared to TPA, MT2R (melatonin receptor type 1B).
Where [24] appears, read: read-out: % GPCR activation compared to TPA, GPR153 (G protein-coupled receptor 153).
Where [25] appears, read: read-out: % GPCR activation compared to TPA, GPRC5A (G protein-coupled receptor class C group 5 member A).

Like-named read-outs stand apart in the source and are kept apart here.

T1 sequence (P16473 21-764): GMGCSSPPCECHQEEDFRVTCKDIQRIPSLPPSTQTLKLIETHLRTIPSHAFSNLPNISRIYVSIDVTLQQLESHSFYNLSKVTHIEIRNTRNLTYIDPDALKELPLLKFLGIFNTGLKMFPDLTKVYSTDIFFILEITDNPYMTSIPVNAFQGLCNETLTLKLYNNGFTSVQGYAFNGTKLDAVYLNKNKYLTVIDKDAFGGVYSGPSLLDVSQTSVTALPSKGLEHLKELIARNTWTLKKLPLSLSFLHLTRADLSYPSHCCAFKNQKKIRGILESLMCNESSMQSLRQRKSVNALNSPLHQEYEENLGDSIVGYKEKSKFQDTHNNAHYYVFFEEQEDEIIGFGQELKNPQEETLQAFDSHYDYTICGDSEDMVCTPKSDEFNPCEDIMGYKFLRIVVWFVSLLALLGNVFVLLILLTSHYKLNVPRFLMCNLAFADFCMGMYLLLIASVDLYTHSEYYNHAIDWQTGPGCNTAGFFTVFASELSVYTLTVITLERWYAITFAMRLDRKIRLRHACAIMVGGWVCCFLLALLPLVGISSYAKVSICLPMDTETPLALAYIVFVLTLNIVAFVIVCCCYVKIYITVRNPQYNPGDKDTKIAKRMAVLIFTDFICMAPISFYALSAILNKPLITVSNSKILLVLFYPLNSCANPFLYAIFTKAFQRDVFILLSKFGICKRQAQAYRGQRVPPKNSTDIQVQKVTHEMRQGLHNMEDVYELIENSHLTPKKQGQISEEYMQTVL
T7 sequence (Q8NFJ5 whole entry): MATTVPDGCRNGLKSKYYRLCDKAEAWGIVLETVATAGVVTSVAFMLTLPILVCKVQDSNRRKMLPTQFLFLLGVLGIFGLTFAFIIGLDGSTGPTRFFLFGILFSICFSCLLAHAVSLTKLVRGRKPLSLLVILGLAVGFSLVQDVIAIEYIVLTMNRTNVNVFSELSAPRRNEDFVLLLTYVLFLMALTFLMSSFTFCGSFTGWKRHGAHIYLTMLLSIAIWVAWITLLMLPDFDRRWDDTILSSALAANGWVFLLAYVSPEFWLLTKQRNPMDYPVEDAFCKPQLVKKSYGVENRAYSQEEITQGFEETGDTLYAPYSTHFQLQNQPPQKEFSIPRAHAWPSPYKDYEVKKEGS
T6 sequence (Q6NV75 whole entry): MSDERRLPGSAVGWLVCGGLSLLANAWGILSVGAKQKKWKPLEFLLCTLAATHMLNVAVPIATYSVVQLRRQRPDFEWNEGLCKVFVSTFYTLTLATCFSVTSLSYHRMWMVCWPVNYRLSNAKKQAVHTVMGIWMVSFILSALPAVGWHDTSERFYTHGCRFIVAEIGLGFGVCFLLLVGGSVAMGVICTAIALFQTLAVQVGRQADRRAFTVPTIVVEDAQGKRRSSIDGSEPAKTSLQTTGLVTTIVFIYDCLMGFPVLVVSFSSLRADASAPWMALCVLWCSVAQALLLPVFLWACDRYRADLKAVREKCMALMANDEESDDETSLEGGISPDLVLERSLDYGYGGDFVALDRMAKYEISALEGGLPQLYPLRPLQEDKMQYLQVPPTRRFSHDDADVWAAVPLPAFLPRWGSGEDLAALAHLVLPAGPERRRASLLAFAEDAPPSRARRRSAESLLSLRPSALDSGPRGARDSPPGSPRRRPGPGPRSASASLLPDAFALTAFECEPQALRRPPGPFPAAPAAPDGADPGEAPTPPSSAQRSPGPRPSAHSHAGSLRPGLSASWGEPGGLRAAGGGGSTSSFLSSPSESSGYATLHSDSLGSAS
Sequence of 348 GPCRs (Homo sapiens, UniProt P28221) (P28221 whole entry): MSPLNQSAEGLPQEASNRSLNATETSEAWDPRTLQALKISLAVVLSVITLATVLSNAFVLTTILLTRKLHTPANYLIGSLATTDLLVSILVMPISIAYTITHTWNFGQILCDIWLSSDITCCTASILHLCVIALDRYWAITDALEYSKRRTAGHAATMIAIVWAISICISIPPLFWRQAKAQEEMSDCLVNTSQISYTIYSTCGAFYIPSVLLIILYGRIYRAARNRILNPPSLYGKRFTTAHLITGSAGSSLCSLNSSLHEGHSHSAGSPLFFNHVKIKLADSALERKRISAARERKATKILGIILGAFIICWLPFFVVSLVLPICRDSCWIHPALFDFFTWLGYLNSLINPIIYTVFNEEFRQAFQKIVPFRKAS

With `CC(C)C(=O)OC[C@H]1O[C@@H](n2ccc(NO)nc2=O)[C@H](O)[C@@H]1O` [molnupiravir], the activation at 10 µM was -0.502% on 348 GPCRs [1] (setting [10]); -0.992% on 348 GPCRs [2] (setting [11]); 0.3% on 348 GPCRs [4] (setting [13]); -1.78% at 348 GPCRs [6] (setting [15]); -23.6% at 348 GPCRs [7] (setting [16]). Moreover, the activation at 100 µM is 0.705% on 348 GPCRs [3] (setting [12]), 1.08% at 348 GPCRs [5] (setting [14]) and -5.54% at 348 GPCRs [8] (setting [17]). The “% GPCR activation compared to TPA” value at 348 GPCRs [9] (10µM) is given as -0.3127%.
For the molecule `CC(C)OC(=O)[C@H](C)N[P@](=O)(OC[C@H]1O[C@@H](n2ccc(=O)[nH]c2=O)[C@](C)(F)[C@@H]1O)Oc1ccccc1` [sofosbuvir], the activation at 10 µM at 348 GPCRs [1] (setting [18]) is -0.338%; on 348 GPCRs [2] (setting [19]), -1.12%; at 348 GPCRs [4] (setting [21]), 0.457%; at 348 GPCRs [6] (setting [23]), -2.8%; at 348 GPCRs [7] (setting [24]) it was -14.2%. In addition, the activation at 100 µM was 0.836% on 348 GPCRs [3] (setting [20]), -0.0144% at 348 GPCRs [5] (setting [22]) and -9.13% on 348 GPCRs [8] (setting [25]). In addition, the “% GPCR activation compared to TPA” value at 348 GPCRs [9] (10µM) is given as -0.9389%.
In the case of `N#C[C@@]1(c2ccc3c(N)ncnn23)O[C@H](CO)[C@@H](O)[C@H]1O` [GS441524], the activation at 10 µM was -1.39% on 348 GPCRs [1] (setting [10]); -1.57% at 348 GPCRs [2] (setting [11]); 3.15% on 348 GPCRs [4] (setting [13]); -2.97% on 348 GPCRs [6] (setting [15]); -3.34% on 348 GPCRs [7] (setting [16]). Besides, the activation at 100 µM on 348 GPCRs [3] (setting [12]) was -9.87%; on 348 GPCRs [5] (setting [14]) it was 0.832%; on 348 GPCRs [8] (setting [17]), 6.76%. Further, the “% GPCR activation compared to TPA” value on 348 GPCRs [9] (10µM) is listed as -4.934%.
In the case of `NC(=O)c1nc(F)cnc1O` [favipiravir, 6-fluoro-3-hydroxy-2-pyrazinecarboxamide], the activation at 10 µM is -1.11% at 348 GPCRs [1] (setting [10]), -2.55% on 348 GPCRs [2] (setting [11]), -4.78% at 348 GPCRs [6] (setting [15]) and 0.731% at 348 GPCRs [7] (setting [16]). Moreover, the activation at 100 µM was -9.38% on 348 GPCRs [3] (setting [12]); -0.101% on 348 GPCRs [4] (GPCR MAS1L (MAS1 oncogene-like), 100μM, read-out: % GPCR activation compared to TPA); 7.08% at 348 GPCRs [5] (setting [14]); 8.99% at 348 GPCRs [8] (setting [17]). Further, the “% GPCR activation compared to TPA” value on 348 GPCRs [9] (100μM) came out at 2.983%.
In the case of `CCC(CC)COC(=O)[C@H](C)N[P@](=O)(OC[C@H]1O[C@@](C#N)(c2ccc3c(N)ncnn23)[C@H](O)[C@@H]1O)Oc1ccccc1` [remdesivir], the activation at 10 µM on 348 GPCRs [1] (setting [18]) is -3.29%; on 348 GPCRs [2] (setting [19]), -1.45%; at 348 GPCRs [4] (setting [21]), 0.269%; at 348 GPCRs [6] (setting [23]) it was -2.11%; on 348 GPCRs [7] (setting [24]), 4.65%. For the same molecule, the values for the activation at 100 µM at 348 GPCRs [3] (setting [20]), on 348 GPCRs [5] (setting [22]) and on 348 GPCRs [8] (setting [25]) were -5.77%, 6.53% and 9.99%, respectively. Moreover, the “% GPCR activation compared to TPA” value on 348 GPCRs [9] (10µM) is listed as -1.376%.

For the origin of these results see PMC10175918 (Communications Biology, 2023).
